Experiment: Pharmacokinetic parameters after intravenous administration to rats
Format: in vivo
Conditions: male, Han/Wistar, plasma, rat, i.v. 20 nmol/kg; for MRT: read-out: Mean Residence Time; for half-life: read-out: Terminal half-life (converted)
Description: Pharmacokinetic parameters of the test compounds were determined after intravenous administration to Han/Wistar rats. The acylated GLP-1 analogue semaglutide was also tested for comparison purposes.
Male Wistar rats were obtained from Charles River (Germany) weighing approximately 180 to 210 g at time of arrival at the test facility. Rats were caged in European standard rat cages type IV with light cycle of 12-hour dark and 12-hour light. During the study rats were housed in standard rat cages type III. Both diet Altromin 1324 (Altromin, Germany) and water was administered ad libitum during the whole experimental period. The animals were housed in the test facility for at least 4 days in order to assure proper acclimatization.
The compounds were first dissolved in 0.1% aqueous ammonia to a nominal concentration of 2 mg/ml, and then diluted to the desired dosing strength (10 μM) in sterile PBS containing 25 mM phosphate buffer, pH 7.4. Intravenous injections corresponding to 20 nmol/kg were given via a lateral tail vein.
Blood samples (200 μl) were collected from the periorbital plexus at time points 0.08, 0.25, 0.5, 1, 2, 4, 8, 24, 32 and 48 h post dosing into K3EDTA tubes and centrifuged for 5 minutes at 4° C. within 20 minutes of sampling. Plasma samples (>100 μl) were transferred to 96-well PCR plates, immediately frozen and kept at −20° C. until analysed for plasma concentration for the respective GLP-1-glucagon compound using LC-MS/MS. Individual plasma concentration-time profiles were analysed by a non-compartmental approach using ToxKin™ version 3.2 (Unilog IT Services), and the resulting pharmacokinetic parameters were determined.

clearance | MRT | half-life | Structure (SMILES)
3.57 mL/h/kg | 28.5 h | 22.8 h | CC[C@H](C)[C@H](NC(=O)[C@H](Cc1ccccc1)NC(=O)[C@H](CC(=O)O)NC(=O)[C@H](CCCCN)NC(=O)[C@H](C)NC(=O)[C@H](C)NC(=O)[C@H](CCCNC(=N)N)NC(=O)[C@H](CCC(=O)O)NC(=O)[C@H](CC(=O)O)NC(=O)[C@H](CC(C)C)NC(=O)[C@H](Cc1ccc(O)cc1)NC(=O)[C@H](CCCCN)NC(=O)[C@H](CO)NC(=O)[C@H](Cc1ccc(O)cc1)NC(=O)[C@H](CC(=O)O)NC(=O)[C@H](CO)NC(=O)[C@@H](NC(=O)[C@H](Cc1ccccc1)NC(=O)[C@@H](NC(=O)CNC(=O)[C@H](CCC(N)=O)NC(=O)C1(NC(=O)[C@@H](N)Cc2c[nH]cn2)CCC1)[C@@H](C)O)[C@@H](C)O)C(=O)N[C@@H](CCCCNC(=O)CNC(=O)CNC(=O)[C@H](CO)NC(=O)CNC(=O)[C@H](CO)NC(=O)CNC(=O)CC[C@H](NC(=O)CCCCCCCCCCCCCCCCC(=O)O)C(=O)O)C(=O)N[C@@H](Cc1c[nH]c2ccccc12)C(=O)N[C@@H](CC(C)C)C(=O)N[C@@H](CCC(=O)O)C(=O)N[C@@H](CO)C(=O)N[C@@H](C)C(N)=O [Compound 5]
5.98 mL/h/kg | 23.7 h | 18.1 h | CC[C@H](C)[C@H](NC(=O)[C@H](Cc1ccccc1)NC(=O)[C@H](CC(=O)O)NC(=O)[C@H](CCCCN)NC(=O)[C@H](C)NC(=O)[C@H](C)NC(=O)[C@H](CCCNC(=N)N)NC(=O)[C@H](CCC(=O)O)NC(=O)[C@H](CC(=O)O)NC(=O)[C@H](CC(C)C)NC(=O)[C@H](Cc1ccc(O)cc1)NC(=O)[C@H](CCCCN)NC(=O)[C@H](CO)NC(=O)[C@H](Cc1ccc(O)cc1)NC(=O)[C@H](CC(=O)O)NC(=O)[C@H](CO)NC(=O)[C@@H](NC(=O)[C@H](Cc1ccccc1)NC(=O)[C@@H](NC(=O)CNC(=O)[C@H](CCC(N)=O)NC(=O)C1(NC(=O)[C@@H](N)Cc2c[nH]cn2)CCC1)[C@@H](C)O)[C@@H](C)O)C(=O)N[C@@H](CCC(=O)O)C(=O)N[C@@H](Cc1c[nH]c2ccccc12)C(=O)N[C@@H](CC(C)C)C(=O)N[C@@H](CCC(=O)O)C(=O)N[C@@H](CCCCNC(=O)CNC(=O)CNC(=O)[C@H](CO)NC(=O)CNC(=O)[C@H](CO)NC(=O)CNC(=O)CC[C@H](NC(=O)CCCCCCCCCCCCCCCCC(=O)O)C(=O)O)C(=O)N[C@@H](C)C(N)=O [Compound 6]
